Results on four compounds are retold here after patent US4287190A, “Complexes of bivalent copper” (priority 1979, dated 1981).

One assay has as its system Carrageenan paw oedema. Put plainly: Carrageenan-induced paw oedema in rats, topically applied copper-salicylates. Particulars: topical. On the technique in general: Carrageenan injected into the paw causes an acute inflammation.
The subject of another assay is Zymosan paw oedema. Put plainly: Zymosan-induced paw oedema in rats, topically applied copper-salicylates. The conditions noted are these: topical, DMSO-glycerol 4:1 v/v, 5 ml/kg.
For assay [1], the system named is polyarthritis induced in rats with Mycobacterium tuberculosis in squalane. The assay is described as follows: Polyarthritis induced with Mycobacterium tuberculosis in squalane. The class given is in vivo. The conditions noted are these: Cu[H Sal]2. DMSO formulation.
Assay [2] deals with artificially induced inflammation in rats (sodium carrageenan). The assay is described as follows: Carrageenan foot swelling after topical treatment (Example 5, FIG. 2). Particulars: topical, 154, 231, 462 and 770 mg, about 6 hours before carrageenan. It is filed as in vivo, Male Wistar rats. The method, then:
Male Wistar rats (average weight 250 g) were anaesthetised with diethyl ether and an area of c. 20 sq.cm was shaven high on their backs. The rats were then separated into 7 groups. Group 1, the control rats were not treated. Group 2 rats were treated by the application of a mixture of alcohol and glycerol (4:1), the carrier used for the compound Cu[H Sal]2. C2 H5 OH. Group 3 rats were treated with a 7% w/v solution of salicylic acid in a mixture of alcohol and glycerol (4:1). Group 4, 5, 6 and 7 rats were treated with amounts of Cu[H Sal]2. C2 H5 OH composition prepared according to example 3 containing 154 mg, 231 mg, 462 mg, and 770 mg respectively, of Cu[H Sal]2. C2 H5 OH.
About 6 hours after the topical treatment of the rats, inflammation was induced in a foot of each rat in each of the groups by the injection of 0.1 ml of 1% saline solution of sodium carrageenan into a foot pad of each rat. The inflammation of the feet of the rats in each group was then monitored by the swelling of the feet with a micrometer screw-gauge.
The results are shown in FIG. 2 wherein the curves represent the increase in paw thickness of the rats with time after the injection of the inflammatory agent. The curves 1 to 7 represent the swelling of the paws of the rats of groups 1 to 7 respectively.

[3] abbreviates: Wistar, 2 Hour, DMSO-glycerol 4:1 v/v, 5 ml/kg.
[4] abbreviates: Wistar, 4 Hour, DMSO-glycerol 4:1 v/v, 5 ml/kg.
The mark [5] stands for this setting: DA × Lewis, 2 Hour, DMSO-glycerol 4:1 v/v, 5 ml/kg.
[6] abbreviates: DA × Lewis, 4 Hour, DMSO-glycerol 4:1 v/v, 5 ml/kg.

Experimental for Carrageenan paw oedema: All materials applied to shaved dorsal skin
in vehicle (= DMSO--glycerol), 4:1 v/v, 5 ml/kg except as
*Vehicle = ethanolglycerol (4:1 v/v)

`CC(=O)[O-].CC(=O)[O-].[Cu+2]` [Cu(OAc)]: the figures for the “% Inhibition of paw oedema induced with Carrageenan” value (“% Inhibition … with Carrageenan” below) in the assay with Carrageenan paw oedema (setting [3]) and in the assay on Carrageenan paw oedema (setting [4]) were 04% and 11%, respectively. Moreover, the “% Inhibition of paw oedema induced with Zymosan” value (from here on “% Inhibition … with Zymosan”) in the assay with Zymosan paw oedema (DA × Lewis, 2 Hour) is 14%; in the assay with Zymosan paw oedema (DA × Lewis, 4 Hour), 04%; in the assay with Zymosan paw oedema (Wistar, 1 Hour), 12%; in the assay with Zymosan paw oedema (Wistar, 2 Hour), 12%.
As to `CS(C)=O.O=C([O-])c1ccccc1O.O=C([O-])c1ccccc1O.[Cu+2]` [Cu[H Sal]2 . DMSO, copper salicylate DMSO], the “effect on the progress of polyarthritis” value in assay [1] is “effective on the progress of polyarthritis”. The “% Inhibition … with Carrageenan” value is 47% in the assay with Carrageenan paw oedema (setting [5]), 39% in the assay with Carrageenan paw oedema (setting [6]), 46% with Carrageenan paw oedema (setting [3]) and 53% in the assay with Carrageenan paw oedema (setting [4]). Also, the “% Inhibition … with Zymosan” value in the assay with Zymosan paw oedema (DA × Lewis, 2 Hour) was determined as 36%; in the assay on Zymosan paw oedema (DA × Lewis, 4 Hour), 22%; with Zymosan paw oedema (Wistar, 1 Hour), 43%; in the assay with Zymosan paw oedema (Wistar, 2 Hour), 21%.
`O=C(O)c1ccccc1O` [Salicylic acid (alone), Salicylic acid]: the “% Inhibition … with Carrageenan” value amounted to 44% in the assay with Carrageenan paw oedema (setting [5]), 32% in the assay with Carrageenan paw oedema (setting [6]), 14% in the assay with Carrageenan paw oedema (setting [3]) and 18% with Carrageenan paw oedema (setting [4]). Moreover, the “% Inhibition … with Zymosan” value is given as -08% in the assay with Zymosan paw oedema (DA × Lewis, 2 Hour); -05% with Zymosan paw oedema (DA × Lewis, 4 Hour); 22% in the assay on Zymosan paw oedema (Wistar, 1 Hour); 16% with Zymosan paw oedema (Wistar, 2 Hour).
Consider “copper salicylate ethanolate [Cu[H Sal]2. C2 H5 OH]”, for which the “% Inhibition … with Carrageenan” value in the assay with Carrageenan paw oedema (Wistar, 2 Hour, ethanol-glycerol 4:1 v/v, 5 ml/kg) worked out at 24%; in the assay on Carrageenan paw oedema (Wistar, 2 Hour, ethanol-glycerol 4:1 v/v, 15 ml/kg) it was 58%; in the assay on Carrageenan paw oedema (Wistar, 4 Hour, ethanol-glycerol 4:1 v/v, 5 ml/kg), 32%; in the assay on Carrageenan paw oedema (Wistar, 4 Hour, ethanol-glycerol 4:1 v/v, 15 ml/kg), 53%. The “anti-inflammatory effect (increase in paw thickness with time)” value in assay [2] is recorded as “clearly shows the anti-inflammatory effect”.
